Legend:
[1] = biological target: T1, vesicular acetylcholine transporters (Macaca mulatta, UniProt A0A1D5QJ59); test: Localization of [^11C]HAPT in individual sites of the brain (PET); assay type: in vivo; conditions: brain of Rhesus monkey, 13 sites checked, FIG. 3
T1 construct: Rhesus monkey having a body weight of about 5 kg was immobilized to PET apparatus; from tissue; host or cells: brain of living Rhesus monkey (in vivo PET)
T1 sequence (A0A1D5QJ59 1-532): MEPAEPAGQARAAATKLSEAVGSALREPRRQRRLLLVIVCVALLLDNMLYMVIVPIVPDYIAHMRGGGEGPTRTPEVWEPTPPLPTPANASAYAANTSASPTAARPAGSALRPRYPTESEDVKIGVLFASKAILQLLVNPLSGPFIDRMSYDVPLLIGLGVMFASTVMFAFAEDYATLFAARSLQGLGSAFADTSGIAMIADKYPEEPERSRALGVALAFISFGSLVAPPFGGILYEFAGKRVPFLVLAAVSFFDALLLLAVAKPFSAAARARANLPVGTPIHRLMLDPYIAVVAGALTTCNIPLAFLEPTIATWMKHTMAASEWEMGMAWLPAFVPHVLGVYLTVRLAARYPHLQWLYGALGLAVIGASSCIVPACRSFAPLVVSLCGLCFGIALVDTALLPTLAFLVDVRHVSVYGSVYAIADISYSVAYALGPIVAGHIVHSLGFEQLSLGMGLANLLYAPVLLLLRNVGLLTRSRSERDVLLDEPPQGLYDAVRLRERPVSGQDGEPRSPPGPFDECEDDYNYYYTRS
Experimental: (§1) Rhesus monkey having a body weight of about 5 kg was immobilized to PET apparatus (trade name, SHR7700 manufactured by Hamamatsu Photonics KK) without anesthesia. After transmission was measured for absorption correction, [^11C]HAPT was intravenously administered and dynamic measurement was performed for 180 minutes.
Localization of [^11C]HAPT in individual sites of the brain of Rhesus monkey was checked. The results of the cases of using (S,S)HAPT-A and (R,R)HAPT-A are shown in FIG. 3 (A); whereas the results of the cases of using (S,S)HAPT-B and (R,R)HAPT-B are shown in FIG. 3 (B).

[2] = biological target: T1, vesicular acetylcholine transporters; test: PET measurement of time-dependent change of [^11C]HAPT in brain ROIs; assay type: in vivo, Rhesus monkey (Macaca mulatta); conditions: brain of Rhesus monkey, FIG. 1; for binding to vesicular acetylcholine transporters: intravenous administration, dynamic PET 180 minutes
Experimental: as §1
In tomographic images obtained from a single individual by a nuclear magnetic resonance tomography apparatus (hereinafter, MRI), a region of interest (ROI) was determined and then, a time-dependent change of a labeled compound ([^11C]HAPT) in each ROI was obtained.

[3] = biological target: T1, vesicular acetylcholine transporters; test: Inhibition experiment with vesicular transporter inhibitor vesamicol (PET); assay type: in vivo, Rhesus monkey; conditions: L-(−)-vesamicol 1 mg/kg intravenously 30 minutes before tracer, FIG. 4 and 5
Experimental: Inhibition experiments were performed by using a vesicular transporter inhibitor (vesamicol). Specific procedure employed is as follows.
The cephalic vein or saphenous vein was secured as the route for intravenous administration to test animals and the femoral artery or posterior tibial artery was secured as the route for arterial blood sampling.
Thirty minutes before administration of [^11C]HAPT, L-(−)-vesamicol was intravenously administered in a dose of 1 mg/kg.
The amount of radioactivity of [^11C]HAPT before administration was measured. A total amount of [^11C]HAPT was intravenously administered from an indwelling needle placed in a test animal over about 30 seconds. Simultaneously with initiation of administration, Emission measurement (121 minutes, 55 frames in total including: 10 seconds 6 frames, 30 seconds 6 frames, 1 minute 12 frames, […], 5 minutes 6 frames) was started for monitoring.

| binding to vesicular acetylcholine transporters with vesamicol compared to control [3] | time to reach an equilibrium state from initiation of measurement ([2]; PET) | SMILES | localization in individual sites of the brain [1] | binding to vesicular acetylcholine transporters [2] |
| --- | --- | --- | --- | --- |
| – | – | Cc1cccc2c1C[C@@H](N1CCN(c3ccccc3N)CC1)[C@H](O)C2 [(R,R)[^11C]HAPT-A] | localized most significantly in the putamen | specifically bind to vesicular acetylcholine transporters |
| – | – | Cc1cccc2c1C[C@H](O)[C@@H](N1CCN(c3ccccc3N)CC1)C2 [(S,S)[^11C]HAPT-B] | non-specific binding in any site | does not bind to vesicular acetylcholine transporters |
| reduces | about 15 minutes | [11CH3]c1cccc2c1C[C@@H](O)[C@H](N1CCN(c3ccccc3N)CC1)C2 [(R,R)[^11C]HAPT-B, (2R,3R)-3-(4-(2-aminophenyl)piperazin-1-yl)-8-[^11C]methyl-1,2,3,4-tetrahydronaphthalen-2-ol] | – | specifically bind to vesicular acetylcholine transporters |
| – | – | Cc1cccc2c1C[C@@H](O)[C@H](N1CCN(c3ccccc3N)CC1)C2 [(R,R)[^11C]HAPT-B, (2R,3R)-3-(4-(2-aminophenyl)piperazin-1-yl)-8-[^11C]methyl-1,2,3,4-tetrahydronaphthalen-2-ol] | localized most significantly in the putamen | specifically binds to a vesicular acetylcholine transporter |
| – | – | Cc1cccc2c1C[C@H](N1CCN(c3ccccc3N)CC1)[C@@H](O)C2 [(S,S)[^11C]HAPT-A] | localized most significantly in the putamen | specifically bind to vesicular acetylcholine transporters |
